Test results reported in publication PMC12079500, “An Intracellular Peptide Library Screening Platform Identifies Irreversible Covalent Transcription Factor Inhibitors” (Advanced Science, 2025).
“And” between values parts separate entries of the source, which are not always exact repeats. Equal entries are not always repeated. Where two headings read alike, the source gives them in different places. Where a SMILES comes first, the peptide text is derived from it. Bridges are numbered along the chain shown (N, C = ends). The star is where a group is joined. 5FAM = O=C1OC2(c3ccc(O)cc3Oc3cc(O)ccc32)c2ccc(C(=O)*)cc21

Experiments:
SK-MEL-28 cells = experiment: Cell imaging of FAM-peptide uptake; type: cell-based, human; details: SK-MEL-28, 10 and 30 µM, 6 h, 37 °C, fixed, DAPI counterstain, fluorescence microscopy
Procedure: Cell imaging: Cells were seeded at 40,000 cells per well in a […] and incubated for 24 hours before treatment with vehicle (1% DMSO in water) or peptide for 6 hours. The media was removed and the cells were washed 3x with PBS. 1 mL of paraformaldehyde (80 mg/mL in PBS) was added and incubated at room temperature for 10 minutes. The paraformaldehyde was removed and fixed cells were washed with 3x PBS. 500 µL of DAPI (1 µg/mL) was then added and incubated at room temperature for 5 minutes following by a 3x PBS wash. Cells were imaged using an Evos FL digital inverted fluorescence microscope using brightfield and both GFP (for the FAM label) and DAPI fluorescence filters.

cJun/TRE DNA = molecular target: T1, cJun/TRE DNA (Homo sapiens, UniProt P05412); experiment: CD cJun/TRE DNA antagonism assay (TRE DNA signal at 281 nm); type: biochemical; details: for cJun-TRE DNA IC50, fold improved (oxidised vs reduced): ratio of IC50 reduced / oxidised; for IC50: pH 7.4, 30 min equilibration, triplicate data, Hill fit, error one SD
T1 construct: LC-MS analysis of the cJun bZIP domain; made in house
Source text: CD antagonism experiments were next carried out, as previously described,^[ [13], [18] ^] whereby the structure of a TRE DNA duplex was monitored by following a peak at 281 nm, which shifts upon binding to cJun. The introduction of antagonist to the sample causes the peak to shift back to its unbound signal in a dose‐dependent manner as the cJun is sequestered, leaving unbound DNA in its original structure (Figure S9, Supporting Information). As there is no protein absorbance in this region of the CD spectrum, this measures DNA structure only and produces a simple readout of the proportion of free/cJun‐bound DNA at different antagonist concentrations. By fitting these plots to a Hill equation (OriginPro), IC50 values for HW1, HW29, and HW31 were determined in both reducing and oxidizing conditions (Table S1, Supporting Information; Figure 3C).
(§1) Circular dichroism (CD): An Applied Photophysics Chirascan was used for CD measurements, with a 200 µL sample in a 1 mm path length CD cell. Protein/DNA samples were suspended in 20 mM potassium phosphate,150 mM potassium fluoride at pH 7.4 with or without 5 mM TCEP. cJun was added to TRE DNA (5’-[…], Merck) before addition of antagonist peptide and these samples were equilibrated for 30 minutes before measurement.^[13] For full spectra, three scans between 190 and 260 nm (265-320 nm for DNA binding experiments) were collected with a bandwidth of 1 nm and data sampled at a rate of 0.5 s^-1. These scans were averaged and converted to molar residue ellipticities (MRE). Thermal denaturation experiments were performed by measuring the ellipticity at 222 nm over a 1 to 95°C gradient at 1°C increments. Post-melt scans at 20°C confirmed the transitions were reversible as they overlaid within 5% of the pre-melt scan. The resulting thermal denaturation curves were converted to MRE and fitted to a two-state model, derived via modification of the Gibbs–Helmholtz equation to determine the melting temperature (Tm) ^[26].

cJun [1] = molecular target: T2, cJun (Homo sapiens, UniProt P05412); experiment: CD thermal denaturation of antagonist-cJun heterodimer; type: binding; design: LC-MS analysis of the cJun bZIP domain; made in house; details: for Antagonist-cJun heterodimer Tm, reduced / Antagonist-cJun heterodimer Tm, oxidised: CD at 222 nm, 1-95 °C, 20 mM potassium phosphate, 150 mM KF; for Antagonist-cJun heterodimer Tm, reduced: pH 7.4, with 5 mM TCEP (reducing); for Antagonist-cJun heterodimer Tm, oxidised: pH 7.4, without TCEP (oxidising), HW31 50 µM + cJun 50 µM; for Antagonist-cJun heterodimer Tm, Δox-red: difference of Tm in oxidising and reducing buffer
Procedure: as §1

cJun [2] = details: cited from earlier work
Source text: We previously developed cJun peptide antagonists using a Transcription Block Survival (TBS) assay (Figure 1B).^[ [13] ^] This intracellular peptide library screening platform moves beyond conventional peptide screening systems by selecting peptides based on their ability to not only bind to the target but to meet the more demanding task of functionally antagonizing it by i) binding and, more importantly, ii) blocking its ability to form protein‐DNA interactions.

cJun [3] = molecular target: T2, cJun; experiment: ESI-MS of HW31 + cJun mixture; type: binding; design: LC-MS analysis of the cJun bZIP domain; made in house; details: HW31 50 µM + cJun 50 µM, oxidising conditions; reduced back by TCEP
Procedure: A mixture of HW31 (50 µM) and cJun (50 µM, Figure S4, Supporting Information) was first shown to form a disulphide‐bridged complex by ESI‐MS, which could be reduced back to the separate species by the addition of TCEP (Figure S5, Supporting Information). Further, an Alphafold 3 prediction of HW31 (prediction without lactam bridge) bound to cJun indicates the complex forms the predicted coiled coil interaction with the formation of a disulphide between cJun C269 and HW31 C2 (Figure 3A; Figure S6, Supporting Information).^[ [17] ^] The interaction was next characterized using circular dichroism (CD) experiments in both oxidizing and reducing conditions. The mixing of HW31 and cJun in both conditions provided a clear increase in helicity, indicative of a binding interaction (Figure S7, Supporting Information). The measured HW31‐cJun heterodimer complex was ≈10% more helical in the oxidized buffer relative to the reduced. […] Analytical size exclusion chromatography further validated HW31/cJun binding and confirmed the formation of a 1:1 stoichiometric complex (Figure S8, Supporting Information).

cJun [4] = molecular target: T2, cJun; experiment: CD spectra (helicity) of HW31-cJun mixture; type: binding; design: LC-MS analysis of the cJun bZIP domain; made in house; details: oxidised vs reduced buffer
Procedure: as §1

[5] = oxidising buffer (no TCEP), read-out: cJun-TRE DNA IC50, oxidised
[6] = reducing buffer (5 mM TCEP), read-out: cJun-TRE DNA IC50, reduced

T2 sequence (P05412 252-315 limits assumed): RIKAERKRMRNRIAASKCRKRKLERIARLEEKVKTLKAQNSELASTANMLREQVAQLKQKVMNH
T1 sequence (P05412 252-315 limits assumed): as above

Row | cJun-TRE DNA IC50, fold improved (oxidised vs reduced) (cJun/TRE DNA) | Antagonist-cJun heterodimer Tm, reduced (cJun [1]) | Antagonist-cJun heterodimer Tm, oxidised (cJun [1]) | Antagonist-cJun heterodimer Tm, Δox-red (cJun [1]) | IC50 (cJun/TRE DNA; [5]) [µM] | IC50 (cJun/TRE DNA; [6]) [µM] | Disulphide formation with cJun (cJun [3]) | Increase in helicity of the HW31-cJun heterodimer complex in oxidized buffer relative to reduced (cJun [4]) | Molecule | Cellular uptake (FAM fluorescence within cells) (SK-MEL-28 cells) | Kd (cJun [2]; read-out: Previously determined affinity for cJun) [µM] | Kd (cJun [2]; read-out: Affinity for cJun) [µM]
1 |  |  |  |  |  |  |  |  | CC(C)[C@H](NC(=O)[C@H](CCCCN)NC(=O)[C@H](CCCNC(=N)N)NC(=O)[C@H](CCCCN)NC(=O)[C@H](CCCCN)NC(=O)[C@H](CCCCN)NC(=O)[C@@H]1CCCN1C(=O)c1ccc2c(c1)C(=O)OC21c2ccc(O)cc2Oc2cc(O)ccc21)C(=O)N[C@@H](Cc1ccc(O)cc1)C(=O)NCC(=O)N[C@@H](CCCNC(=N)N)C(=O)N[C@@H](CCCCN)C(=O)N[C@@H](CCCCN)C(=O)N[C@@H](CCCNC(=N)N)C(=O)N[C@@H](CCCNC(=N)N)C(=O)N[C@@H](CCC(N)=O)C(=O)N[C@@H](CCCNC(=N)N)C(=O)N[C@@H](CCCNC(=N)N)C(=O)N[C@@H](CCCNC(=N)N)C(N)=O [FAM-NLSTAT, reference compound] (5FAM-PKKKRKVYGRKKRRQRRR-NH2) | FAM fluorescence was observed within the cells |  | 
2 | 1 | 73 °C | 70 °C | -3 °C | 11.8 ± 0.3 | 13.8 ± 0.3 |  |  | Ac-LEQRAEELARENEELEKEAEELVVEEDVLEEEIEQLEERNYALRKEIEDLQKQLEKL-NH2 [HW1, reference compound] |  |  | 0.00021
3 | 4 | 66.6 °C and 67 °C | 81.2 °C and 81 °C | 14.6 °C and 14 °C | 12.1 ± 0.3 | 48.3 ± 1.8 | covalent attachment via a disulphide | ≈ 10% | CC[C@H](C)[C@H](NC(=O)[C@H](CCC(=O)O)NC(=O)[C@H](CCCCN)NC(=O)[C@H](CCCNC(=N)N)NC(=O)[C@H](CC(C)C)NC(=O)[C@H](C)NC(=O)[C@H](Cc1ccc(O)cc1)NC(=O)[C@H](CC(N)=O)NC(=O)[C@H](CCCNC(=N)N)NC(=O)[C@H](CCC(=O)O)NC(=O)[C@H](CCC(=O)O)NC(=O)[C@H](CC(C)C)NC(=O)[C@H](CCC(N)=O)NC(=O)[C@H](CCC(=O)O)NC(=O)[C@@H](NC(=O)[C@H](CCC(=O)O)NC(=O)[C@H](CCC(=O)O)NC(=O)[C@H](CCC(=O)O)NC(=O)[C@H](CC(C)C)NC(=O)[C@@H](NC(=O)[C@H](CC(=O)O)NC(=O)[C@H](CCC(=O)O)NC(=O)[C@H](CCC(=O)O)NC(=O)[C@@H](NC(=O)[C@@H](NC(=O)[C@H](CC(C)C)NC(=O)[C@H](CCC(=O)O)NC(=O)[C@H](CCC(=O)O)NC(=O)[C@H](CS)NC(=O)[C@H](CCC(=O)O)NC(C)=O)C(C)C)C(C)C)C(C)C)[C@@H](C)CC)C(=O)N[C@H]1CCCCNC(=O)C[C@@H](C(=O)N[C@@H](CCC(N)=O)C(N)=O)NC(=O)[C@H](CCC(N)=O)NC(=O)[C@H](CC(C)C)NC(=O)[C@H](CC(=O)O)NC1=O [HW31] (Ac-ECEELVVEEDVLEEEIEQLEERNYALRKEIKDLQDQ-NH2; lactam 31-35) |  |  | 

Row | Molecule | cJun-TRE DNA IC50, fold improved (oxidised vs reduced) (cJun/TRE DNA) | Antagonist-cJun heterodimer Tm, reduced (cJun [1]) | Antagonist-cJun heterodimer Tm, oxidised (cJun [1]) | Antagonist-cJun heterodimer Tm, Δox-red (cJun [1]) | IC50 (cJun/TRE DNA; [5]) [µM] | IC50 (cJun/TRE DNA; [6]) [µM] | Disulphide formation with cJun (cJun [3]) | Increase in helicity of the HW31-cJun heterodimer complex in oxidized buffer relative to reduced (cJun [4]) | Cellular uptake (FAM fluorescence within cells) (SK-MEL-28 cells) | Kd (cJun [2]; read-out: Previously determined affinity for cJun) [µM] | Kd (cJun [2]; read-out: Affinity for cJun) [µM]
4 | CC[C@H](C)[C@H](NC(=O)[C@H](CCC(=O)O)NC(=O)[C@H](CCCCN)NC(=O)[C@H](CCCNC(=N)N)NC(=O)[C@H](CC(C)C)NC(=O)[C@H](C)NC(=O)[C@H](Cc1ccc(O)cc1)NC(=O)[C@H](CC(N)=O)NC(=O)[C@H](CCCNC(=N)N)NC(=O)[C@H](CCC(=O)O)NC(=O)[C@H](CCC(=O)O)NC(=O)[C@H](CC(C)C)NC(=O)[C@H](CCC(N)=O)NC(=O)[C@H](CCC(=O)O)NC(=O)[C@@H](NC(=O)[C@H](CCC(=O)O)NC(=O)[C@H](CCC(=O)O)NC(=O)[C@H](CCC(=O)O)NC(=O)[C@H](CC(C)C)NC(=O)[C@@H](NC(=O)[C@H](CC(=O)O)NC(=O)[C@H](CCC(=O)O)NC(=O)[C@H](CCC(=O)O)NC(=O)[C@@H](NC(=O)[C@@H](NC(=O)[C@H](CC(C)C)NC(=O)[C@H](CCC(=O)O)NC(=O)[C@H](CCC(=O)O)NC(=O)[C@H](C)NC(=O)[C@H](CCC(=O)O)NC(C)=O)C(C)C)C(C)C)C(C)C)[C@@H](C)CC)C(=O)N[C@H]1CCCCNC(=O)C[C@@H](C(=O)N[C@@H](CCC(N)=O)C(N)=O)NC(=O)[C@H](CCC(N)=O)NC(=O)[C@H](CC(C)C)NC(=O)[C@H](CC(=O)O)NC1=O [HW29, reference compound] (Ac-EAEELVVEEDVLEEEIEQLEERNYALRKEIKDLQDQ-NH2; lactam 31-35) | 1 | 68 °C | 66 °C | -2 °C |  |  |  |  |  | 0.087 ± 0.017 | 
